“Also recorded” adds a separate entry of the source. Like-named read-outs stand apart in the source and are kept apart here. Non-standard residues stand in square brackets, D forms with d. Residues, ends and D or L forms follow the SMILES beside them.
Assays:
[1] = tested on: PC-3 cells; assay type: cell-based, human; settings: read-out: IC50, cell growth
Protocol: (§1) Human prostate cancer PC-3 cells were cultured and maintained in EMEM (ATCC), non-prostate HEK (human embryonic kidney) cells were cultured in DMEM, human prostate cancer DU145, LNCaP, 22Rv1 cells were cultured in RPMI 1640 (ATCC), and normal BPH-1 prostate cells and prostate cancer C4-2 cell line were cultured in RPMI 1640 (ATCC), all containing 10% fetal bovine serum (Atlanta Biologicals) and 1% penicillin/streptomycin (Invitrogen). Cells were grown at 37° C. in humidified air with 5% CO2 and passaged every fourth to fifth day following trypsinization with trypsin/EDTA (Invitrogen).^16
(§2) PC-3, LNCaP, DU 145, 22Rv1, C4-2, BPH-1, and HEK cells were grown to a density of 2000 cells/well in 96 well plates and treated with [D-Trp]CJ-15,208 or other peptides for 24-72 h in duplicate. Media containing [D-Trp]CJ-15,208 was changed every 24 h. The proliferation of treated cells was determined using the cell proliferation reagent WST-1 (Roche) per the manufacturer's instructions and compared to […] control cells in 1% DMSO in media. After treatment with compound 10 μL of the reagent was added to the well in 100 μL culture media, and the cells incubated at 37° C. for 30 min. The absorbance of the media in each well was measured at […] using a plate reader (BioTek). The percentage cell proliferation was normalized to vehicle treated control cells calculated as: (mean absorbance of sample/mean absorbance of control cells)×100.^38
(§3) Each experiment was performed in triplicate unless otherwise stated in the figure legend. GraphPad Prism 5 was used to determine IC50 values. Data represent the mean value+/−SEM. Compound vs. vehicle treated cells in the cell cycle phase and apoptosis experiments (FIGS. 5-8) were compared using the student's t-test, with a two-tailed, unpaired method, using the Prism software. The effects of compound vs. vehicle treatment on protein levels (FIG. 10) were evaluated by one-way ANOVA with Dunnett's test for multiple comparisons.

[2] = tested on: LNCaP cells; assay type: cell-based, human; settings: read-out: IC50, cell growth
Protocol: as §1, §2, §3

[3] = tested on: 22Rv1 cells; assay type: cell-based, human; settings: read-out: IC50, cell growth
Protocol: as §1, §2, §3

[4] = tested on: DU145 cells; assay type: cell-based, human; settings: read-out: IC50, cell growth
Protocol: as §1, §2, §3

[5] = tested on: PC-3 cells; test: Annexin V-APC/PI apoptosis assay; assay type: cell-based, human; settings: PC-3, 10 μM
Protocol: The extent of apoptosis was analyzed by detecting surface expression of phosphatidylserine on apoptotic cells using an Annexin V-APC/PI dual staining apoptosis detection kit I (BD Biosciences) according to the manufacturer's protocol. Following treatment of PC-3 cells with 10 μM [D-Trp]CJ-15,208 or vehicle for 24 h or 48 h, the cells were collected, washed twice with cold PBS, and resuspended in 1× binding buffer at a concentration of 1×10^6 cells/mL. Cell suspension (100 μL) was transferred to a 5 ml culture tube, and 5 μL of Annexin V-APC and 25 μL of PI (50 μg/mL) were added. The cells were incubated for 15 min at room temperature in the dark with gentle vortexing, 400 μL of 1× binding buffer was then added to each sample, and the samples were analyzed using a Beckman-Coulter MoFlo XDP flow cytometer within one hour. The number of viable, apoptotic and necrotic cells were quantified using FlowJo v10.0.7. The apoptosis fraction (%) was calculated as (number of apoptotic cells/the number of total cells observed)×100%.^38
as §3

[6] = tested on: PC-3 cells xenograft tumors; test: Mouse xenograft model, tumor growth inhibition; assay type: in vivo; settings: PC-3 xenograft in nude mice, 30 mg/kg intraperitoneally three times per week
Protocol: An in-vivo study was performed to determine tumor growth inhibition by [D-Trp]CJ-15,208 in a mouse xenograft model. PC-3 cells were injected subcutaneously in both rear flanks of nude mice. Once tumors were established, mice were treated intraperitoneally three times per week with either vehicle (50% DMSO, 45% PEG 400, and 5% polyoxyethylene (20) sorbitan monooleate (Tween 80); 3 mice, 6 tumors) or [D-Trp]CJ-15,208 (30 mg/kg in vehicle; 2 mice, 3 tumors). Tumor volume was measured using calipers.

[7] = mice, dose of 60 mg/kg; cited from earlier work
[8] = tested on: HEK cells; test: Cell proliferation assay (WST-1); assay type: cell-based, human
Protocol: as §1, §2, §3

[9] = tested on: Erk in PC-3 cells; test: Western blot of p-Erk/total Erk protein levels; assay type: cell-based, human
Protocol: Cells were seeded in 6 well plates at a density of 1×10^5 cells/well and grown to 75% confluence. Cells were treated with [D-Trp]CJ-15,208 at the indicated concentrations. Cells were then harvested as described above, and the cell pellets lysed in RIPA buffer consisting of 10 mM Tris HCl, pH 8.0, 150 mM NaCl, 1 mM EDTA, 1% Triton-X-100, 0.1% SDS, 1% sodium deoxycholate, and a protease inhibitor cocktail #P8340 (Sigma). Cell lysates were centrifuged at 13×1000 rpm for 15 min and the supernatants collected. The total protein concentration was measured in cell lysates using the standard Bradford assay. SDS gel electrophoresis was performed using 4-20% polyacrylamide gel (BioRad). […] Signal densities of the protein bands were determined using ImageJ software (NIH) and normalized to the internal loading control (actin).
Each experiment was performed in triplicate unless otherwise stated in the figure legend. […] The effects of compound vs. vehicle treatment on protein levels (FIG. 10) were evaluated by one-way ANOVA with Dunnett's test for multiple comparisons.

SMILES: O=C1N[C@H](Cc2c[nH]c3ccccc23)C(=O)N[C@@H](Cc2ccccc2)C(=O)N2CCC[C@@H]2C(=O)N[C@H]1Cc1ccccc1 [[D-Trp]CJ-15,208, cyclo[Phe-D-Pro-Phe-D-Trp]] (cyclo(F[dP]F[dW]))
- IC50 ([1]; 48 h): 16.5 ± 0.7 µM
- IC50 ([1]; 72 h): 2 ± 1 µM
- IC50 ([2]; 48 h): > 50 µM
- IC50 ([2]; 72 h): 3 ± 1 µM
- IC50 ([3]; 48 h): 8.8 ± 4 µM
- IC50 ([3]; 72 h): 4 ± 0.8 µM
- IC50 ([4]; 48 h): 1.2 ± 0.2 µM
- IC50 ([4]; 72 h): 0.7 ± 0.1 µM
- number of cells in early or late apoptosis ([5]; 24 h): No significant change
- increase of number of cells in early apoptosis vs. vehicle ([5]; 48 h): 10 fold
- increase of number of cells in late apoptosis vs. vehicle ([5]; 48 h): 3 fold
- tumor growth compared to vehicle [6]: decrease in tumor growth
- toxicity [7]: no evidence of toxicity
- IC50, cell growth ([8]; 48 h): No effect
- IC50, cell growth ([8]; 72 h): No effect
- effect on cell proliferation / cytotoxicity ([8]; time not stated): No cytotoxicity was observed; also recorded: did not prevent cell proliferation
- total Erk protein levels ([9]; PC-3, 48 h): did not decrease significantly
- cellular levels of p-Erk ([9]; PC-3, increasing concentrations, 48 h): did not change significantly
